# Results from the supplement of paper PMC10307832.
# What was measured:
# Experiment in all cases: relative viability (nuclei count vs DMSO), 5 days (fraction); higher = more cells survive
# [1] = test system: A-427
# How it was run: (§1)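 Lung cancer cell lines in 1536-well plates were dosed by pin tool the day after seeding, either with one drug alone or with a fixed anchor-drug dose plus five library-drug doses (not always all listed) in √10 steps. After 5 days, cells were fixed and their nuclei stained in one step (final 0.05% Triton X-100, 1% formaldehyde, 1 ug/ml Hoechst), then counted on 4× images. Relative viability is the nuclei count in treated wells divided by that in vehicle wells. Values are medians of duplicate plates.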
# [2] = test system: HCC-15
# How it was run: as §1
# [3] = test system: HCC-78
# How it was run: as §1
# [4] = test system: HOP-62
# How it was run: as §1
# [5] = test system: LC-2-ad
# How it was run: as §1
# [6] = test system: LXF-289
# How it was run: as §1
# [7] = test system: NCI-H1734
# How it was run: as §1
# [8] = test system: NCI-H1755
# How it was run: as §1
# [9] = test system: NCI-H1792
# How it was run: as §1
# [10] = test system: NCI-H1915
# How it was run: as §1
# [11] = test system: NCI-H1975
# How it was run: as §1
# [12] = test system: NCI-H2126
# How it was run: as §1
# [13] = test system: NCI-H2228
# How it was run: as §1
# [14] = test system: NCI-H2342
# How it was run: as §1
# [15] = test system: NCI-H2347
# How it was run: as §1
# [16] = test system: NCI-H358
# How it was run: as §1
# [17] = test system: NCI-H522
# How it was run: as §1
# [18] = test system: NCI-H647
# How it was run: as §1
# [19] = test system: PC-3 [JPC-3]
# How it was run: as §1
# [20] = test system: RERF-LC-KJ
# How it was run: as §1
# [21] = test system: SK-LU-1
# How it was run: as §1
# [22] = test system: SW 1573
# How it was run: as §1
structure (smiles),measurement,setting,value
CC(=O)O[C@@]12CO[C@@H]1C[C@H](O)[C@@]1(C)C(=O)[C@H](O)C3=C(C)[C@@H](OC(=O)[C@H](O)[C@@H](NC(=O)OC(C)(C)C)c4ccccc4)C[C@@](O)([C@@H](OC(=O)c4ccccc4)[C@H]21)C3(C)C [Docetaxel] + O=C(c1cc(Cc2n[nH]c(=O)c3ccccc23)ccc1F)N1CCN(C(=O)C2CC2)CC1 [Olaparib] (partner 8 µM),relative viability,[1]; first compound 0.0002 µM,0.662
same,relative viability,[1]; first compound 0.000632 µM,0.704
same,relative viability,[1]; first compound 0.002 µM,0.538
same,relative viability,[1]; first compound 0.006325 µM,0.292
same,relative viability,[1]; first compound 0.02 µM,0.198
same,relative viability,[2]; first compound 0.0002 µM,0.72
same,relative viability,[2]; first compound 0.000632 µM,0.382
same,relative viability,[2]; first compound 0.002 µM,0.281
same,relative viability,[2]; first compound 0.02 µM,0.175
same,relative viability,[3]; first compound 0.0002 µM,0.859
same,relative viability,[3]; first compound 0.000632 µM,0.777
same,relative viability,[3]; first compound 0.002 µM,0.41
same,relative viability,[3]; first compound 0.006325 µM,0.329
same,relative viability,[3]; first compound 0.02 µM,0.338
same,relative viability,[4]; first compound 0.0002 µM,0.336
same,relative viability,[4]; first compound 0.000632 µM,0.317
same,relative viability,[4]; first compound 0.002 µM,0.129
same,relative viability,[4]; first compound 0.02 µM,0.12
same,relative viability,[5]; first compound 0.0002 µM,0.623
same,relative viability,[5]; first compound 0.000632 µM,0.411
same,relative viability,[5]; first compound 0.002 µM,0.304
same,relative viability,[5]; first compound 0.02 µM,0.191
same,relative viability,[6]; first compound 0.0002 µM,1.06
same,relative viability,[6]; first compound 0.000632 µM,0.393
same,relative viability,[6]; first compound 0.002 µM,0.195
same,relative viability,[6]; first compound 0.006325 µM,0.111
same,relative viability,[6]; first compound 0.02 µM,0.0839
same,relative viability,[7]; first compound 0.0002 µM,0.498
same,relative viability,[7]; first compound 0.000632 µM,0.506
same,relative viability,[7]; first compound 0.002 µM,0.292
same,relative viability,[7]; first compound 0.006325 µM,0.324
same,relative viability,[7]; first compound 0.02 µM,0.196
same,relative viability,[8]; first compound 0.0002 µM,0.87
same,relative viability,[8]; first compound 0.000632 µM,0.729
same,relative viability,[8]; first compound 0.002 µM,0.578
same,relative viability,[8]; first compound 0.006325 µM,0.417
same,relative viability,[8]; first compound 0.02 µM,0.377
same,relative viability,[9]; first compound 0.0002 µM,0.281
same,relative viability,[9]; first compound 0.000632 µM,0.306
same,relative viability,[9]; first compound 0.002 µM,0.0724
same,relative viability,[9]; first compound 0.006325 µM,0.0761
same,relative viability,[9]; first compound 0.02 µM,0.0428
same,relative viability,[10]; first compound 0.0002 µM,0.278
same,relative viability,[10]; first compound 0.000632 µM,0.256
same,relative viability,[10]; first compound 0.002 µM,0.179
same,relative viability,[10]; first compound 0.006325 µM,0.144
same,relative viability,[10]; first compound 0.02 µM,0.0963
same,relative viability,[11]; first compound 0.0002 µM,0.748
same,relative viability,[11]; first compound 0.000632 µM,0.448
same,relative viability,[11]; first compound 0.002 µM,0.239
same,relative viability,[11]; first compound 0.006325 µM,0.187
same,relative viability,[11]; first compound 0.02 µM,0.147
same,relative viability,[12]; first compound 0.0002 µM,0.887
same,relative viability,[12]; first compound 0.000632 µM,0.861
same,relative viability,[12]; first compound 0.002 µM,0.615
same,relative viability,[12]; first compound 0.006325 µM,0.348
same,relative viability,[13]; first compound 0.0002 µM,0.446
same,relative viability,[13]; first compound 0.000632 µM,0.275
same,relative viability,[13]; first compound 0.002 µM,0.153
same,relative viability,[13]; first compound 0.006325 µM,0.13
same,relative viability,[13]; first compound 0.02 µM,0.0992
same,relative viability,[14]; first compound 0.0002 µM,0.525
same,relative viability,[14]; first compound 0.000632 µM,0.456
same,relative viability,[14]; first compound 0.002 µM,0.312
same,relative viability,[14]; first compound 0.006325 µM,0.348
same,relative viability,[14]; first compound 0.02 µM,0.301
same,relative viability,[15]; first compound 0.0002 µM,0.613
same,relative viability,[15]; first compound 0.000632 µM,0.566
same,relative viability,[15]; first compound 0.002 µM,0.557
same,relative viability,[15]; first compound 0.006325 µM,0.505
same,relative viability,[15]; first compound 0.02 µM,0.388
same,relative viability,[16]; first compound 0.0002 µM,0.551
same,relative viability,[16]; first compound 0.000632 µM,0.251
same,relative viability,[16]; first compound 0.002 µM,0.136
same,relative viability,[16]; first compound 0.006325 µM,0.147
same,relative viability,[16]; first compound 0.02 µM,0.095
same,relative viability,[17]; first compound 0.0002 µM,0.653
same,relative viability,[17]; first compound 0.000632 µM,0.459
same,relative viability,[17]; first compound 0.002 µM,0.532
same,relative viability,[17]; first compound 0.006325 µM,0.499
same,relative viability,[17]; first compound 0.02 µM,0.377
same,relative viability,[18]; first compound 0.0002 µM,0.449
same,relative viability,[18]; first compound 0.000632 µM,0.132
same,relative viability,[18]; first compound 0.002 µM,0.0799
same,relative viability,[18]; first compound 0.006325 µM,0.0764
same,relative viability,[18]; first compound 0.02 µM,0.0432
same,relative viability,[19]; first compound 0.0002 µM,1.13
same,relative viability,[19]; first compound 0.000632 µM,1.03
same,relative viability,[19]; first compound 0.002 µM,0.585
same,relative viability,[19]; first compound 0.006325 µM,0.388
same,relative viability,[19]; first compound 0.02 µM,0.234
same,relative viability,[20]; first compound 0.0002 µM,0.793
same,relative viability,[20]; first compound 0.000632 µM,0.608
same,relative viability,[20]; first compound 0.002 µM,0.281
same,relative viability,[20]; first compound 0.02 µM,0.172
same,relative viability,[21]; first compound 0.0002 µM,0.479
same,relative viability,[21]; first compound 0.000632 µM,0.349
same,relative viability,[21]; first compound 0.002 µM,0.315
same,relative viability,[21]; first compound 0.006325 µM,0.256
same,relative viability,[21]; first compound 0.02 µM,0.167
same,relative viability,[22]; first compound 0.0002 µM,0.304
same,relative viability,[22]; first compound 0.000632 µM,0.223
same,relative viability,[22]; first compound 0.002 µM,0.199
same,relative viability,[22]; first compound 0.006325 µM,0.162
same,relative viability,[22]; first compound 0.02 µM,0.119
